Experimental data reported in ChEMBL document CHEMBL1955771, “VX-322: a novel dual receptor tyrosine kinase inhibitor for the treatment of acute myelogenous leukemia” (J Med Chem, 2012).

What was measured:
[1] = molecular target: Vascular endothelial growth factor receptor 2 (Homo sapiens, UniProt P35968); test: Inhibition of KDR
[2] = molecular target: T1, Receptor-type tyrosine-protein kinase FLT3 (Homo sapiens, UniProt P36888); test: Inhibition of human recombinant FLT3 by radiometric assay
T1 sequence (P36888 whole entry): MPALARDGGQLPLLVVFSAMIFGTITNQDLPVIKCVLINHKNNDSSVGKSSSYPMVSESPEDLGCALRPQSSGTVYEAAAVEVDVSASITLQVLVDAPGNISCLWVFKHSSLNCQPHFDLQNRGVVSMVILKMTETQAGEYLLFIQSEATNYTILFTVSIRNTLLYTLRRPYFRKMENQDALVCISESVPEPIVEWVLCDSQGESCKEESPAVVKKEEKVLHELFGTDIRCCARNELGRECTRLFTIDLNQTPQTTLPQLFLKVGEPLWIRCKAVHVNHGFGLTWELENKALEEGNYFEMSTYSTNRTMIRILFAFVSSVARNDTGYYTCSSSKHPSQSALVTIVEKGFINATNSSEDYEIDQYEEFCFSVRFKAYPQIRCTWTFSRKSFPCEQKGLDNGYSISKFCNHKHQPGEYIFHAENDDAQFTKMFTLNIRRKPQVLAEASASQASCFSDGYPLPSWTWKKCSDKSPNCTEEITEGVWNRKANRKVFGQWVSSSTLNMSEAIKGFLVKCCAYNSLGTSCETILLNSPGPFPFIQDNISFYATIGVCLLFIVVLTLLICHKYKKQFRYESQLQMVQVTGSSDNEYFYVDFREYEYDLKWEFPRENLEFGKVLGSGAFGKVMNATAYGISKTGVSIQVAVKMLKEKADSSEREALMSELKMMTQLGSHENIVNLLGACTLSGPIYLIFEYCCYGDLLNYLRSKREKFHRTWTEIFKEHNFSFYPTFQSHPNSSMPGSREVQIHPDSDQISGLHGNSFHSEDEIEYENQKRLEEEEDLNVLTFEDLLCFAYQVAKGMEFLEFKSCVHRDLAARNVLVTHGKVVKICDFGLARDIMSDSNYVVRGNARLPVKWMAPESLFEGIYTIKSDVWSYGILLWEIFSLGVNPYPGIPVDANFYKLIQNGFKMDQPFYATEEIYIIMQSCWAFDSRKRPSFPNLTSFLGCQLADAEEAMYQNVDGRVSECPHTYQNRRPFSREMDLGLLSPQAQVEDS

[3] = molecular target: Hepatocyte growth factor receptor (Homo sapiens, UniProt P08581); test: Inhibition of cMET
Sequence of Hepatocyte growth factor receptor (P08581 whole entry): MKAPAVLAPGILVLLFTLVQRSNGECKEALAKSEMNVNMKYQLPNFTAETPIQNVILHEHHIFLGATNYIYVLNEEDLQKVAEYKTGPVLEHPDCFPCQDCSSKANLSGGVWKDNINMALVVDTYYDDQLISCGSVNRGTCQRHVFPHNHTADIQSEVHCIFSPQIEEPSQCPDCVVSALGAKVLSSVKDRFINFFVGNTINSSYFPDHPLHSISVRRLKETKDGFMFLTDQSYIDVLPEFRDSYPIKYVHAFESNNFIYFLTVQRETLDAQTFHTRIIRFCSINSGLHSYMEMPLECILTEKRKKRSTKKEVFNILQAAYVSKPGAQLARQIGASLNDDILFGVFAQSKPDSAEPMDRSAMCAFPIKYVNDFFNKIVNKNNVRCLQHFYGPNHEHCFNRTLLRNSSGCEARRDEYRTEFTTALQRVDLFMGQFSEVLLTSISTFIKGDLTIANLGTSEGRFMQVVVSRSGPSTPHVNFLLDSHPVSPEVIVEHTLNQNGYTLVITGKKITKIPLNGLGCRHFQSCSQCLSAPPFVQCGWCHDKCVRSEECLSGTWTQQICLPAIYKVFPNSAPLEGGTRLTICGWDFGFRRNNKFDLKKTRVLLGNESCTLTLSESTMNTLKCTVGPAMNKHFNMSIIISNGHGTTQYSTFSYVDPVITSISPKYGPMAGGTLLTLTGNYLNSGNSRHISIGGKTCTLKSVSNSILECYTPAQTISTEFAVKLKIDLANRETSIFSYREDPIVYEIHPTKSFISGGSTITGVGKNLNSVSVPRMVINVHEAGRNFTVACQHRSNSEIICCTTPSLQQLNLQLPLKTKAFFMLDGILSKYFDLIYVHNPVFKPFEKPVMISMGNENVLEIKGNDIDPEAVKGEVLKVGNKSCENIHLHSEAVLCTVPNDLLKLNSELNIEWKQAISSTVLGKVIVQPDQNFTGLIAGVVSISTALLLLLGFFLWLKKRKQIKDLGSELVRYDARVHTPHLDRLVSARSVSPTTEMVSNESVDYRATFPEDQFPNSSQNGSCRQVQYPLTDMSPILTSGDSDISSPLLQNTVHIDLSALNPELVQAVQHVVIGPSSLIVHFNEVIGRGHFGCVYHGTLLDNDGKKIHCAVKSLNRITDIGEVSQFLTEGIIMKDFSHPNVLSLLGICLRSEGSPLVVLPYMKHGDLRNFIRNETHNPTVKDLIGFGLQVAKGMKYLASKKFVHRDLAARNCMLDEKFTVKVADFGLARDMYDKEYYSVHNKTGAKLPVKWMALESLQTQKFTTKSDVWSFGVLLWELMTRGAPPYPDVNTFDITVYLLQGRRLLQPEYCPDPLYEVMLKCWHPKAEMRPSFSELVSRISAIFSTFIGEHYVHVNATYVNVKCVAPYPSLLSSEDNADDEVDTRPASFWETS

[4] = molecular target: T2, Tyrosine-protein kinase JAK3 (Homo sapiens, UniProt P52333); test: Inhibition of Jak3
T2 sequence (P52333 whole entry): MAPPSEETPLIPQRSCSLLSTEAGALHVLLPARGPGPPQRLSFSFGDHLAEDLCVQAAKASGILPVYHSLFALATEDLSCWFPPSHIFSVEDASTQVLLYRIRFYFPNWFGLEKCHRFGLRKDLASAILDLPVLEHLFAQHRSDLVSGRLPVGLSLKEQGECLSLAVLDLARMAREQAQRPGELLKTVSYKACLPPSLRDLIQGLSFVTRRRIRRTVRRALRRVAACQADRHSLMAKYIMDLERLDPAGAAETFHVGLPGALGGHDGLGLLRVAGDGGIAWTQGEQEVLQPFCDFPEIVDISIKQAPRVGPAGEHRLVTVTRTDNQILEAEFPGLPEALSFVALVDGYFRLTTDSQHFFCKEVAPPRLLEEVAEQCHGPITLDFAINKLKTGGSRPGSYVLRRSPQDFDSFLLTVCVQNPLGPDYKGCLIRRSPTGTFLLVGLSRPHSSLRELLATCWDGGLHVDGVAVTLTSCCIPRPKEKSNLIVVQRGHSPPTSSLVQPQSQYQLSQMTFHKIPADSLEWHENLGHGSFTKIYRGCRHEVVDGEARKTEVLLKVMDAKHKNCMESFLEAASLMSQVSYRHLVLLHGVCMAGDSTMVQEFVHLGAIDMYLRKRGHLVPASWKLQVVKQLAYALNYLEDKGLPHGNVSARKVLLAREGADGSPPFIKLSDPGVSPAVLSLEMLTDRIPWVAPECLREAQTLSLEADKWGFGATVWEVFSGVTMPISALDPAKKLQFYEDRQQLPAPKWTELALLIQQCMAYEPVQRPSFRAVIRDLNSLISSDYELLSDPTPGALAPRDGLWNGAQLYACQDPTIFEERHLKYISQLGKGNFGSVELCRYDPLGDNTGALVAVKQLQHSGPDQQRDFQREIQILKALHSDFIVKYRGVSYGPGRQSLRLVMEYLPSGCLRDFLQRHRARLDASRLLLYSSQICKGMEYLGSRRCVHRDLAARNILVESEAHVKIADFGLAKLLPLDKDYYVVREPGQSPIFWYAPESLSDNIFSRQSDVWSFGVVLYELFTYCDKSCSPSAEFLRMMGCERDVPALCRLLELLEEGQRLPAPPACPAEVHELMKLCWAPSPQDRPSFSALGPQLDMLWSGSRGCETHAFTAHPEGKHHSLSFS

MV4-11 [5] = test: Induction of apoptosis in human MV4-11 cells at 100 nM assessed as apoptotic cells after 24 hrs by annexin V and propidium iodide staining method (reference value: […]); type: functional
[6] = tested on: Receptor-type tyrosine-protein kinase FLT3 (Homo sapiens), P36888 [UNDEFINED MUTATION]; test: (§1) Inhibition of FLT3 ITD mutant autophosphorylation in human MV4-11 cells after 1 hr by immunoblot analysis; type: cell-based
[7] = molecular target: T3, Receptor-type tyrosine-protein kinase FLT3 (Homo sapiens, UniProt P36888, ITD); test: as §1; type: cell-based
[8] = molecular target: T3, Receptor-type tyrosine-protein kinase FLT3; test: Inhibition of FLT3 ITD mutant mediated Stat5 phosphorylation in human MV4-11 cells by immunoblot analysis; type: cell-based
BaF3 = test: Antitumor activity against mouse BA/F3 cells expressing FLT3-ITD mutant xenografted in BALB/c mouse myeloproliferative model assessed as increase in host survival days at 0.25 mg/kg, po qd relative to control (reference value: 20 days); type: functional, organism-based; set-up: dose 0.25 mg/kg
Mus musculus [9] = test: Antitumor activity against mouse BA/F3 cells expressing FLT3-ITD mutant xenografted in BALB/c mouse myeloproliferative model assessed as reduction of phosphorylated Stat5 level in spleen administered qd for 2 days measured after 8 hrs by immunohistochemistry analysis; type: functional, organism-based; settings: BaF3
[10] = Half life in BALB/c mouse; type: ADME, organism-based; settings: in vivo
Mus musculus [11] = species: Mus musculus; test: Toxicity in BALB/c mouse assessed as change in body weight after 100 days; type: organism-based; settings: in vivo, 2400 h
MV4-11 [12] = test: cells; settings: Homo sapiens, MV4-11, 72 h
Description: Cytotoxicity against human MV4-11 cells expressing FLT3-ITD mutation assessed as cell viability after 72 hrs by resazurin dye based fluorescence assay

Sequence of Vascular endothelial growth factor receptor 2 (P35968 whole entry): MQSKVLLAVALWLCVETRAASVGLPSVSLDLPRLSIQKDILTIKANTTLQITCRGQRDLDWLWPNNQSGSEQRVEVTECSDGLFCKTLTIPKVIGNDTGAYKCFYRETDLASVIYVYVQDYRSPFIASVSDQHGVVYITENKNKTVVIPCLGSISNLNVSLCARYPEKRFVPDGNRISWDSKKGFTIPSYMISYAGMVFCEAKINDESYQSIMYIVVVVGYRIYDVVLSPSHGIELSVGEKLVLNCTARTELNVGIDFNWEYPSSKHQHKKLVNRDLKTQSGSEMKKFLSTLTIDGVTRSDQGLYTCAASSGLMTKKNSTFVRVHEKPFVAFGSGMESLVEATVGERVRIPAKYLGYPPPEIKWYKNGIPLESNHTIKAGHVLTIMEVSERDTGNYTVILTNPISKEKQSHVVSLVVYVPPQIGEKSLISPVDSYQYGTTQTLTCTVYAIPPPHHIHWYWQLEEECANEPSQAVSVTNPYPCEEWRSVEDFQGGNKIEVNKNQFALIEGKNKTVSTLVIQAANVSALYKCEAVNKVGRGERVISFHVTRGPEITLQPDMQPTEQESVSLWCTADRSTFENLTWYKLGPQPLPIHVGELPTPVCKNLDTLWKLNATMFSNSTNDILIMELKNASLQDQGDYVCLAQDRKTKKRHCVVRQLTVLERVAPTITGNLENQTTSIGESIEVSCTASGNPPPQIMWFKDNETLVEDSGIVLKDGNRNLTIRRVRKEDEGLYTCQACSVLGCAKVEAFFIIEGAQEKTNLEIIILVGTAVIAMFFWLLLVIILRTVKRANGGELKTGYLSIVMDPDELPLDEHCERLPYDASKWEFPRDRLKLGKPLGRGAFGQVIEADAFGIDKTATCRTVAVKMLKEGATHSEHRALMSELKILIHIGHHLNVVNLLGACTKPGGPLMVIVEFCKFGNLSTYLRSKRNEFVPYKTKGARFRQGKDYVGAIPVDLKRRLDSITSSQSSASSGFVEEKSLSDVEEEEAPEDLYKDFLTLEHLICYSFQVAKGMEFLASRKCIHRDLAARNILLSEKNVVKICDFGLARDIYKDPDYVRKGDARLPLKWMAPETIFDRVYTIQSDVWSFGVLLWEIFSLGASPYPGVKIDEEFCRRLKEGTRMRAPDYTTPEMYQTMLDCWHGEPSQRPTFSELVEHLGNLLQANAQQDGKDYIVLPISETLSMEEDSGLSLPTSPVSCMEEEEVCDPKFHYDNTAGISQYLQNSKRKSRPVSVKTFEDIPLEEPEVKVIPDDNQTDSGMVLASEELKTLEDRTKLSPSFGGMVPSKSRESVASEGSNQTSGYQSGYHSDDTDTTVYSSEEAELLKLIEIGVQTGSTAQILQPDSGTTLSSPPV

Nc1nc(Nc2ccc([C@H]3CC[C@H](N4CCOCC4)CC3)cc2)nn1-c1ccccn1
Ki [1]: 85 nM
Ki [2]: 0.17 nM
Ki [3]: 130 nM
Ki [4]: 280 nM
Activity (MV4-11 [5]): 8.4%
inhibition [6]: Dose-dependent effect
IC50 [7]: 0.4 nM
IC50 [8]: 1.3 nM
MSD (BaF3): 25 days
Activity (Mus musculus [9]): Dose-dependent effect
half-life [10]: 15 h
Activity (Mus musculus [11]): Non-toxic
IC50 (MV4-11 [12]): 0.2 nM
